Several values for one entry are separate records, joined by “and”; a condition that tells them apart may be missing. Equal values may be shown once. Non-standard residues stand in square brackets, D forms with d. Residues, ends and D or L forms follow the SMILES beside them. NMeY = CN[C@@H](Cc1ccc(O)cc1)C(=O)O; Nle = CCCC[C@H](N)C(=O)O; Orn = NCCC[C@H](N)C(=O)O; Abu = CC[C@H](N)C(=O)O; Ava = NCCCCC(=O)O
Legend:
[1] = system: GH release; experiment: GH releasing potency in vivo, subcutaneous administration (Example 14, Table 12); set-up: species or system rat; conditions: s.c.
Method in brief: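 Potency is expressed relative to GHRH(1-29)NH2 and JI-38 (each = 1), via equivalent GHRH(1-29)NH2 dose read from a standard curve. Peptides in 5% mannitol given i.v. or s.c. to anaesthetised male Sprague-Dawley rats (200-250 g); serum GH measured by ELISA at selected times.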

[2] = target: T1, GHRH receptor (Homo sapiens, UniProt Q02643); experiment: Receptor binding in vitro, 125I-labeled [His1,Nle27]-hGHRH(1-32)NH2, membrane receptors of human anterior pituitary cells (Table 14)
T1 sequence (Q02643 23-423): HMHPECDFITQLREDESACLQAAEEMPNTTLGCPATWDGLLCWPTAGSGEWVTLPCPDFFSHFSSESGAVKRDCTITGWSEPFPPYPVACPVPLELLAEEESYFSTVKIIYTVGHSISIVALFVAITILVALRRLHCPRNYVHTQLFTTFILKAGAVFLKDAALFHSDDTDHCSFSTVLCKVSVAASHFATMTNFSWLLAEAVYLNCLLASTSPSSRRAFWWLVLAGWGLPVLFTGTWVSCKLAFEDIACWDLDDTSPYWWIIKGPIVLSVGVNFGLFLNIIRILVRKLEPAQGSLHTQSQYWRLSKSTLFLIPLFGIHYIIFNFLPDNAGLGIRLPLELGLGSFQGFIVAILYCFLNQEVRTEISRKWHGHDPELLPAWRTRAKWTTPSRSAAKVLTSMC
Description: Normal human pituitary was purchased from the National Hormone and Peptide Program (UCLA Medical Center, Torrance, Calif.).

[3] = target: T1, GHRH receptor; experiment: GHRH receptor binding, competition with 125I-labeled JV-1-42, human pituitary membrane homogenates (Table 7); set-up: Normal human pituitaries were purchased from the National Hormone and Peptide Program; tissue National Hormone and Peptide Program (A.F. Parlow, Harbor-UCLA Medical Center, Torrance, Calif.); host or cells: normal human pituitary, membrane fraction; conditions: JI-38 = 1, Table 7
Excerpt: Normal human pituitaries were purchased from the National Hormone and Peptide Program (A.F. Parlow, Los Angeles, County Harbor-UCLA Medical Center, Torrance, Calif.).

[4] = system: GH release; experiment: In vivo endocrine activity, GH release after subcutaneous administration (Table 9); conditions: rat; for GH releasing potency relative to JI-38 (=1): subcutaneous (s.c.) injection
Description: Subcutaneous Administration. Adult male rats were used and anesthetized with pentobarbital (6 mg/100 g, b.w.), by i.p. injection. […] Blood samples were taken from the jugular vein 5, 15 and/or 30 minutes after the injection. The blood samples were centrifuged, plasma was removed and the GH level was measured byELISA. The results are summarized in terms of potency in Table 9.

[5] = system: GH release; experiment: In vivo endocrine activity, GH release after intravenous administration (Table 8); conditions: rat, i.v. injection
Description: In vivo tests on endocrine activity of new GHRH agonists (Intravenous administration). For in vivo tests based on intravenous administration, adult male Sprague-Dawley rats were anesthetized with pentobarbital (6 mg/100/g, b.w.), and GHRH agonists were injected 20 minutes after the injection of pentobarbital. Blood samples were taken from the jugular vein (pretreated level), immediately after hGHRH(1-29)NH2 injection (as a control) or after hGHRH analogs injection. Blood samples were taken from the jugular vein 5, 15 and 30 minutes after the injection. The blood samples were centrifuged, plasma was removed and the GH level was measured by ELISA.

## CCCC[C@H](NC(=O)[C@@H](NC(=O)[C@H](CC(=O)O)NC(=O)[C@H](CCC(N)=O)NC(=O)[C@H](CC(C)C)NC(=O)[C@H](CC(C)C)NC(=O)[C@H](CCCN)NC(=O)[C@H](CCCNC(=N)N)NC(=O)[C@H](C)NC(=O)[C@H](CO)NC(=O)[C@H](CC(C)C)NC(=O)[C@H](CCC(N)=O)NC(=O)[C@H](CC)NC(=O)[C@H](CC(C)C)NC(=O)[C@@H](NC(=O)[C@H](CCCN)NC(=O)[C@H](CCCNC(=N)N)NC(=O)[C@H](Cc1ccc(O)cc1)NC(=O)[C@H](CO)NC(=O)[C@H](CCC(N)=O)NC(=O)[C@@H](NC(=O)[C@H](Cc1ccccc1)NC(=O)[C@@H](NC(=O)[C@H](C)NC(=O)[C@H](CC(=O)O)NC(=O)[C@@H](C)NC(=O)[C@H](Cc1ccc(O)cc1)NC)[C@@H](C)CC)[C@@H](C)O)C(C)C)[C@@H](C)CC)C(=O)N[C@@H](CC(=O)O)C(=O)N[C@@H](CCCNC(=N)N)C(=O)NCCCCC(N)=O [Peptide P-22326, [N—Me-Tyr^1, D-Ala^2, Gln^8, Orn^12, Abu^15, Orn^21, Nle^27, Asp^28, Apa^30] hGHRH(1-30)NH2] (H-[NMeY][dA]DAIFTQSYR[Orn]VL[Abu]QLSAR[Orn]LLQDI[Nle]DR[Ava]-NH2)
[1]; male rats, dose 3 μg/kg, 0 min, mean ± SEM
  Serum GH level at selected time after injection (ng/ml), 0 min: 43.7 ± 6.4 ng/mL
[1]; male rats, dose 3 μg/kg, 15 min, mean ± SEM
  Serum GH level at selected time after injection (ng/ml), 15 min: 309.2 ± 33.5 ng/mL
[1]; male rats, dose 3 μg/kg, 30 min, mean ± SEM
  Serum GH level at selected time after injection (ng/ml), 30 min: 225.9 ± 19.8 ng/mL
[1]
  GH-releasing potency after s.c. administration (in words): significantly higher potencies at 30 minutes than at 15 minutes
[1]; 15 min
  Relative potency compared to GHRH(1-29), 15 min: 92.7
[1]; 15 min, listed as MR-326
  Relative potency compared to JI-38, 15 min: 1.5 and 1.47
[1]; 30 min
  Relative potency compared to GHRH(1-29), 30 min: 303.4
[1]; 30 min, listed as MR-326
  Relative potency compared to JI-38, 30 min: 2.7 and 2.71
[2]; JI-38 = 1
  Relative affinity (Binding potency) compared to JI-38: 2.80
[2]; hGHRH(1-29)NH2 = 1
  Relative affinity (Binding potency) compared to hGHRH(1-29): 7.81
[3]
  Relative affinity (Binding potency) vs JI-38: 6.12
[4]; s.c.
  Stimulation of growth hormone levels after subcutaneous administration (in words): stimulated greater growth hormone levels than hGHRH or JI-38
[4]; 15 min after
  GH releasing potency relative to JI-38 (=1): 1.76
[4]; 30 min after
  GH releasing potency relative to JI-38 (=1): 2.31
[5]; 15 min after
  GH releasing potency in vivo relative to JI-38 (=1): 0.28
[5]; 30 min after
  GH releasing potency in vivo relative to JI-38 (=1): 0.94

— US10555987B2, “GHRH agonists for the treatment of ischemic disorders” (UNIVERSITY OF MIAMI, priority 2012, dated 2020)
